In patent publication US8623893B2, “Pyridino-pyridinone derivatives, preparation and therapeutic use thereof” (SANOFI, priority 2009, dated 2014):
Structures can show the parent of a compound that is named as a salt.

Experiments:
[1] = molecular target: T1, fusion protein Tel/PDGF-R beta (PDGF beta receptor) in BaF/3 cells (Homo sapiens, UniProt P09619); experiment: Inhibition of proliferation of BaF3 Tel/PDGF cells (tyrosine kinase activity of PDGF-R beta), CellTiter-Glo, 72 h; assay type: cell-based, murine; conditions: 72 h incubation, cellular ATP, read-out: IC50 (concentration that inhibits 50% of the proliferation of Baf3 tel/PDGF cells)
T1 construct: the transmembrane and intracellular part of the PDGF-R beta receptor; expressed in transfected cells; host or cells: murine haematopoietic cell line BaF/3; the other entry of the earlier key: ETV6 (P41212, Transcription factor ETV6)
T1 sequence (P09619 with tags, fused parts or gaps): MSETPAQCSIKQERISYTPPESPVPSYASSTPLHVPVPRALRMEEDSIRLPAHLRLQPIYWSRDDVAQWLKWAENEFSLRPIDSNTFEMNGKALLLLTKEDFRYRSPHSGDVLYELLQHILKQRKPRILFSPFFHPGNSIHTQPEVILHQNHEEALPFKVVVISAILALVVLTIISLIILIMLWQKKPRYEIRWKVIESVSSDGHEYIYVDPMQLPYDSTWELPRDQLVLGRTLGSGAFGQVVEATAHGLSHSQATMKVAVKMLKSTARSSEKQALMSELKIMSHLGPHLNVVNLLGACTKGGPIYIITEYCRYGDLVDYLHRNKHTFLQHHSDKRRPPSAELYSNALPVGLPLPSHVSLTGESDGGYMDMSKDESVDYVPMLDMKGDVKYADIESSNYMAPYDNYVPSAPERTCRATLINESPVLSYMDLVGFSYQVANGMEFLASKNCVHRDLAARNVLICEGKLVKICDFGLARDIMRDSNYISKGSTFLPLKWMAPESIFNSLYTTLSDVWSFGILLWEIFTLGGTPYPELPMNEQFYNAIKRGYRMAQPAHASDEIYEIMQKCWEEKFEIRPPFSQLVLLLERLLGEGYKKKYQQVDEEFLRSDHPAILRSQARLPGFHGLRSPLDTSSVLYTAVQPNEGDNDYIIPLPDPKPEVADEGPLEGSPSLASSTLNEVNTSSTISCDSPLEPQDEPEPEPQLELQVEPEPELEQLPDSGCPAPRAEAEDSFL
Description: (§1) The inhibitory activity with respect to PDGF or Flt-3 receptors is given by the concentration that inhibits 50% of the proliferation activity of cells Baf3 tel/PDGF or MV4-11, respectively.
Measurement of Inhibition of the Tyrosine Kinase Activity of the Receptor to PDGF Beta (PDGF-Rβ) (Baf-3 tel/PDGFRβ):
This test consists of evaluating the effects of the compounds on the tyrosine kinase activity of the PDGF beta receptor.
The inhibitory effect of the compounds according to the invention on the tyrosine kinase activity of the PDGF-R receptor was evaluated on the murine haematopoietic cell line BaF/3 transfected with a plasmid coding for the fusion protein Tel/PDGF-R beta. This fusion protein is found in chronic myeloid myelomonocytic leukaemias (CMML). It comprises the N-terminal part of the transcription factor Tel and the transmembrane and intracellular part of the PDGF-R beta receptor. This fusion protein is present in dimerized form (presence of an oligomerization domain in the N-terminal part of Tel) and accordingly leads to the constitutive activity of the kinase domain of PDGF-R beta.
(§2) The BaF3 Tel/PDGF cells are washed with phosphate buffer and seeded in 96-well plates, at a density of 5.10^4 cells/ml (100 ml per well), in RPMI 1640 containing 10% of FCS, in the presence or absence of the test compounds. After incubation for 72 h, the viable cells are quantified by measurement of cellular ATP using the CellTiter-Glo® kit (Promega, Cat G7571). The cells are treated according to the instructions given by the supplier of the kit and the luminescence is measured with a Luminoskan (Ascent, Labsystem) with the following parameters: measurement: single; integration time: 1000 ms, lag time: 5 s.
It thus appears that the compounds according to the invention have an inhibitory activity on the tyrosine kinase activity of PDGF-R beta. This activity is given by the concentration that inhibits 50% of the proliferation of Baf3 tel/PDGF cells (IC50).

[2] = molecular target: T2, Flt-3 receptor (constitutively active mutant Flt3ITD, MV4-11 cell line) (Homo sapiens, UniProt P36888, INS600HVDFREYEYD); experiment: Inhibition of proliferation of MV4-11 cells (tyrosine kinase activity of Flt-3 receptor), CellTiter-Glo, 72 h; assay type: cell-based; conditions: 72 h incubation, cellular ATP, read-out: IC50 (concentration that inhibits 50% of the proliferation of the MV4-11 cells)
T2 construct: bearing a constitutively active mutant Flt3ITD; endogenous in cells; host or cells: MV4-11
T2 sequence (P36888 with tags, fused parts or gaps INS600HVDFREYEYD): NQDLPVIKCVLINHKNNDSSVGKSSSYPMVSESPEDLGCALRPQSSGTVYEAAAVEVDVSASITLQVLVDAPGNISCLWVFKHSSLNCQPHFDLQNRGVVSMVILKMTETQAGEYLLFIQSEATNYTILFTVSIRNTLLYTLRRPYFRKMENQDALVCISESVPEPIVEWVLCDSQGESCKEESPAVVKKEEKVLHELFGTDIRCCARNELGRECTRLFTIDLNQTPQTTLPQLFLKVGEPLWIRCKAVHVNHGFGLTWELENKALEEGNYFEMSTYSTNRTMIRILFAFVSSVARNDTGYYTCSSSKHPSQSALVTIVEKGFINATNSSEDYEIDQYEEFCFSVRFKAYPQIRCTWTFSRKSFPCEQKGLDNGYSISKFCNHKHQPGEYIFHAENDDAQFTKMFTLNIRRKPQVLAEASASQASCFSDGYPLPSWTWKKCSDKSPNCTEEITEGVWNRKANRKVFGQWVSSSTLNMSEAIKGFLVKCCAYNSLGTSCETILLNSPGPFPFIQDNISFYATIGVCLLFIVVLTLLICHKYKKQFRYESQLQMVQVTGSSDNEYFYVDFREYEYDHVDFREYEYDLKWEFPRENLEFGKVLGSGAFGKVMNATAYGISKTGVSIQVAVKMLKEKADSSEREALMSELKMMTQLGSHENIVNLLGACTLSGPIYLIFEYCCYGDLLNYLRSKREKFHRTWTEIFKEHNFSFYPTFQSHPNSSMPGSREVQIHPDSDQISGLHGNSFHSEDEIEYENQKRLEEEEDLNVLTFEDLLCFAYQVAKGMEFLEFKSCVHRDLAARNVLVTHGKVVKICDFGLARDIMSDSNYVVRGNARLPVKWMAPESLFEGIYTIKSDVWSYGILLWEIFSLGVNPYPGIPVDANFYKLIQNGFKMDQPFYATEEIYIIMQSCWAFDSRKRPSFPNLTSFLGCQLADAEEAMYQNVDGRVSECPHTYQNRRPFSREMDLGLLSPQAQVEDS
Protocol: as §1
Measurement of Inhibition of the Tyrosine Kinase Activity of the Flt-3 Receptor
The inhibitory effect of the compounds according to the invention on the tyrosine kinase activity of the Flt-3 receptor was evaluated on the MV4-11 cell line, a line established from a leukaemia of the AML type and bearing a constitutively active mutant Flt3ITD. The inhibitory activity is correlated with inhibition of cell growth, according to the protocols described by SPIEKERMANN, K. et al., Blood, 2003, 101, (4) 1494-1504 and O'FARRELL, A.-M. et al., Blood, 2003, 101, (9) 3597-3605.
as §2, with “The MV4-11” for “The BaF3 Tel/PDGF”, “with PBS” for “with phosphate”, “of 1.10^5” for “of 5.10^4”, “(100 μl” for “(100 ml”, “h,” for “h, the”, “measured using” for “measured with”
The inhibitory activity with respect to the Flt-3 receptor is given by the concentration that inhibits 50% of the proliferation of the MV4-11 cells.

SMILES | melting point [°C] | IC50 [1] [nM] | IC50 [2] [nM]
CCn1c(N)c(-c2nc(C)c[nH]2)c(=O)c2ccc(-c3ccc(CC(=O)NCc4ccncc4)cc3)nc21 (as salt: salt) [Compound 50, 2-{4-[7-Amino-8-ethyl-6-(4-methyl-1H-imidazol-2-yl)-5-oxo-5,8-dihydro-[1,8]naphthyridin-2-yl]-phenyl}-N-pyridin-4-ylmethyl-acetamide] | 144 |  | 
CCc1ccnc(NC(=O)Cc2ccc(-c3ccc4c(=O)c(-c5ncc[nH]5)c(N)n(CC)c4n3)cc2)c1 [Compound 43, 2-{4-[7-Amino-8-ethyl-6-(1H-imidazol-2-yl)-5-oxo-5,8-dihydro-[1,8]naphthyridin-2-yl]-phenyl}-N-(4-ethyl-pyridin-2-yl)-acetamide] |  | 1.4 | 19
CCn1c(N)c(-c2ncc[nH]2)c(=O)c2ccc(-c3ccc(C(C)C(=O)NCc4ccncc4)cc3)nc21 (centres unmarked) [Compound 47, 2-{4-[7-Amino-8-ethyl-6-(1H-imidazol-2-yl)-5-oxo-5,8-dihydro-[1,8]naphthyridin-2-yl]-phenyl}-N-pyridin-4-ylmethyl-propionamide] | 186 |  | 
CCn1c(N)c(-c2ncc[nH]2)c(=O)c2ccc(-c3ccc(CCCC(=O)NCc4ccncc4)cc3)nc21 [Compound 49, 4-{4-[7-Amino-8-ethyl-6-(1H-imidazol-2-yl)-5-oxo-5,8-dihydro-[1,8]naphthyridin-2-yl]-phenyl}-N-pyridin-4-ylmethyl-butyramide] | 240 |  | 
CCn1c(N)c(-c2nc(C)c[nH]2)c(=O)c2ccc(-c3ccc(CC(=O)NCc4ccncc4)cc3)nc21 [Compound 50, 2-{4-[7-Amino-8-ethyl-6-(4-methyl-1H-imidazol-2-yl)-5-oxo-5,8-dihydro-[1,8]naphthyridin-2-yl]-phenyl}-N-pyridin-4-ylmethyl-acetamide] |  | 6.6 | 115
CCN1CCCC1CNC(=O)Cc1ccc(-c2ccc3c(=O)c(-c4ncc[nH]4)c(N)n(CC)c3n2)cc1F (centres unmarked) [Compound 56, 2-{4-[7-Amino-8-ethyl-6-(1H-imidazol-2-yl)-5-oxo-5,8-dihydro-[1,8]naphthyridin-2-yl]-2-fluoro-phenyl}-N-(1-ethyl-pyrrolidin-2-ylmethyl)-acetamide] | 100 |  | 

Next, values leading:

melting point [°C] | IC50 [1] [nM] | IC50 [2] [nM] | SMILES
 | 2 | 52 | CCn1c(N)c(-c2ncc[nH]2)c(=O)c2ccc(-c3ccc(CC(=O)Nc4ncc(C)s4)cc3)nc21 [Compound 8, 2-{4-[7-Amino-8-ethyl-6-(1H-imidazol-2-yl)-5-oxo-5,8-dihydro-[1,8]naphthyridin-2-yl]-phenyl}-N-(5-methyl-thiazol-2-yl)-acetamide]
 | 8 | 26 | CCn1c(N)c(-c2ncc[nH]2)c(=O)c2ccc(-c3ccc(CC(=O)Nc4nnc(C5CC5)s4)cc3)nc21 [Compound 20, 2-{4-[7-Amino-8-ethyl-6-(1H-imidazol-2-yl)-5-oxo-5,8-dihydro-[1,8]naphthyridin-2-yl]-phenyl}-N-(5-cyclopropyl-[1,3,4]thiadiazol-2-yl)-acetamide]
 |  | 95 | CCn1c(N)c(-c2ncc[nH]2)c(=O)c2ccc(-c3ccc(CC(=O)Nc4ncc(Cl)s4)cc3)nc21 [Compound 26, 2-{4-[7-Amino-8-ethyl-6-(1H-imidazol-2-yl)-5-oxo-5,8-dihydro-[1,8]naphthyridin-2-yl]-phenyl}-N-(5-chloro-thiazol-2-yl)-acetamide]
 | 2 | 30 | CCn1c(N)c(-c2ncc[nH]2)c(=O)c2ccc(-c3ccc(CC(=O)Nc4onc(C)c4C)cc3)nc21 [Compound 27, 2-{4-[7-Amino-8-ethyl-6-(1H-imidazol-2-yl)-5-oxo-5,8-dihydro-[1,8]naphthyridin-2-yl]-phenyl}-N-(3,4-dimethyl-isoxazol-5-yl)-acetamide]
 |  | 69 | CCn1c(N)c(-c2ncc[nH]2)c(=O)c2ccc(-c3ccc(CC(=O)Nc4ncccc4C)cc3)nc21 [Compound 32, 2-{4-[7-Amino-8-ethyl-6-(1H-imidazol-2-yl)-5-oxo-5,8-dihydro-[1,8]naphthyridin-2-yl]-phenyl}-N-(3-methyl-pyridin-2-yl)-acetamide]
 |  | 84 | CCn1c(N)c(-c2ncc[nH]2)c(=O)c2ccc(-c3ccc(CC(=O)Nc4cnccc4C)cc3)nc21 [Compound 42, 2-{4-[7-Amino-8-ethyl-6-(1H-imidazol-2-yl)-5-oxo-5,8-dihydro-[1,8]naphthyridin-2-yl]-phenyl}-N-(4-methyl-pyridin-3-yl)-acetamide]
